Test results as given in US11254663B2 (BRISTOL-MYERS SQUIBB COMPANY, priority 2019, dated 2022).
Read-outs that look alike come from different tables or passages of the source.

Target: FXR (Homo sapiens (Human), UniProt Q96RI1)
Assay: transient human FXR/Gal4-luciferase reporter assay
Type: cell-based
Procedure, shortened: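 HEK293 cells stably carrying a 5×Gal4 response element–firefly luciferase reporter were transiently transfected overnight with a Gal4 DBD–human FXR LBD fusion plasmid. Compound was added in DMSO and cells were incubated overnight at 37 °C, 5% CO2. Activity was read as Steady-Glo luminescence.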

[1] = Gal4-hFXR fusion construct, HEK293 reporter cells, response relative to 8 μM GW-4064

Sequence of FXR (Q96RI1 262-486): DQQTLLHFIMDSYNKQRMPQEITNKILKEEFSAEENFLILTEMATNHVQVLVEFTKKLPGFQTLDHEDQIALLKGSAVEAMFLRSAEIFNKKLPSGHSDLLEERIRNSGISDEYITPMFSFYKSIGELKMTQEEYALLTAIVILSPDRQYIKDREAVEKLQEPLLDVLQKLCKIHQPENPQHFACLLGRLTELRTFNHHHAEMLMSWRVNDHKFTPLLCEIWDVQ

| Structure (SMILES) | EC50 [1] | EC50 |
| --- | --- | --- |
| CC(C)(O)c1ccc(-c2cccc(N(CC34CCC(c5noc(C(C)(C)F)n5)(CC3)CC4)C(=O)[C@H]3C[C@@](C)(O)C3)c2)cc1 [Example 577, (cis)-N-((4-(5-(2-fluoropropan-2-yl)-1,2,4-oxadiazol-3-yl)bicyclo[2.2.2]octan-1-yl)methyl)-3-hydroxy-N-(4′-(2-hydroxypropan-2-yl)-[1,1′-biphenyl]-3-yl)-3-methylcyclobutane-1-carboxamide] | 23 nM |  |
| O=C(N(CC12CCC(c3nc(C4CC4)no3)(CC1)CC2)c1cccc(-c2ccc(NS(=O)(=O)C(F)(F)F)cc2)c1)C12CC(F)(C1)C2 [Example 267, N-((4-(3-cyclopropyl-1,2,4-oxadiazol-5-yl)bicyclo[2.2.2]octan-1-yl)methyl)-3-fluoro-N-(4′-((trifluoromethyl)sulfonamido)-[1,1′-biphenyl]-3-yl)bicyclo[1.1.1]pentane-1-carboxamide] | 46 nM |  |
| CC(C)(C)c1nc(C23CCC(CN(C(=O)C4CC(O)(C(F)(F)F)C4)c4cccc(-c5ccc(OC(F)F)cc5)c4)(CC2)CC3)no1 [Example 516, (1S,3S)—N-((4-(5-(tert-butyl)-1,2,4-oxadiazol-3-yl)bicyclo[2.2.2]octan-1-yl)methyl)-N-(4′-(difluoromethoxy)-[1,1′-biphenyl]-3-yl)-3-hydroxy-3-(trifluoromethyl)cyclobutane-1-carboxamide] |  | 94 nM |
| Cc1cn2cc(-c3cccc(N(CC45CCC(c6nc(C7CC7)no6)(CC4)CC5)C(=O)C45CC(F)(C4)C5)c3)cc(C)c2n1 [Example 322, N-((4-(3-cyclopropyl-1,2,4-oxadiazol-5-yl)bicyclo[2.2.2]octan-1-yl)methyl)-N-(3-(2,8-dimethylimidazo[1,2-a]pyridin-6-yl)phenyl)-3-fluorobicyclo[1.1.1]pentane-1-carboxamide] | 270 nM |  |
| COc1cc(-c2cccc(N(CC34CCC(c5nnc(C)s5)(CC3)CC4)C(=O)C3CCC(F)(F)C3)c2)ccn1 (centres unmarked) [Example 235, 3,3-difluoro-N-(3-(2-methoxypyridin-4-yl)phenyl)-N-((4-(5-methyl-1,3,4-thiadiazol-2-yl)bicyclo[2.2.2]octan-1-yl)methyl)cyclopentane-1-carboxamide] | 895 nM |  |
| N#Cc1cnn2c(-c3cccc(N(CC45CCC(c6nc(C7CC7)no6)(CC4)CC5)C(=O)C45CC(F)(C4)C5)c3)cnc2c1 [Example 314, N-(3-(7-cyanoimidazo[1,2-b]pyridazin-3-yl)phenyl)-N-((4-(3-cyclopropyl-1,2,4-oxadiazol-5-yl)bicyclo[2.2.2]octan-1-yl)methyl)-3-fluorobicyclo[1.1.1]pentane-1-carboxamide] | 504 nM |  |
| CCOc1ncc(-c2cccc(N(CC34CCC(c5noc(C(C)(C)C)n5)(CC3)CC4)C(=O)C3(C)COC3)c2)cn1 [Example 510, N-((4-(5-(tert-butyl)-1,2,4-oxadiazol-3-yl)bicyclo[2.2.2]octan-1-yl)methyl)-N-(3-(2-ethoxypyrimidin-5-yl)phenyl)-3-methyloxetane-3-carboxamide] |  | 974 nM |
| CC(C)Oc1ccc(-c2cc(N(CC34CCC(c5noc(C(C)(C)F)n5)(CC3)CC4)C(=O)N[C@H]3CC[C@](C)(OC(F)F)CC3)ccc2F)cc1 [Example 653, 3-((trans)-4-(difluoromethoxy)-4-methylcyclohexyl)-1-(6-fluoro-4′-isopropoxy-[1,1′-biphenyl]-3-yl)-1-((4-(5-(2-fluoropropan-2-yl)-1,2,4-oxadiazol-3-yl)bicyclo[2.2.2]octan-1-yl)methyl)urea] | 145 nM |  |
| Cc1nc2ccc(-c3cncc(N(CC45CCC(c6nc(C7CC7)no6)(CC4)CC5)C(=O)C45CC(F)(C4)C5)c3)cc2s1 [Example 425, N-((4-(3-cyclopropyl-1,2,4-oxadiazol-5-yl)bicyclo[2.2.2]octan-1-yl)methyl)-3-fluoro-N-(5-(2-methylbenzo[d]thiazol-6-yl)pyridin-3-yl)bicyclo[1.1.1]pentane-1-carboxamide] | 198 nM |  |
| CC(C)(Oc1ccc(-c2cccc(N(CC34CCC(c5noc(C(C)(C)F)n5)(CC3)CC4)C(=O)[C@H]3C[C@](O)(C(F)(F)F)C3)c2)cc1)C(N)=O [Example 654, (cis)-N-(4′-((1-amino-2-methyl-1-oxopropan-2-yl)oxy)-[1,1′-biphenyl]-3-yl)-N-((4-(5-(2-fluoropropan-2-yl)-1,2,4-oxadiazol-3-yl)bicyclo[2.2.2]octan-1-yl)methyl)-3-hydroxy-3-(trifluoromethyl)cyclobutane-1-carboxamide] | 169 nM |  |
| CC(C)(C)c1nc(C23CCC(CN(C(=O)C45CC(F)(C4)C5)c4cc(-c5ccc(NS(C)(=O)=O)cc5)ccn4)(CC2)CC3)no1 [Example 534, N-((4-(5-(tert-butyl)-1,2,4-oxadiazol-3-yl)bicyclo[2.2.2]octan-1-yl)methyl)-3-fluoro-N-(4-(4-(methylsulfonamido)phenyl)pyridin-2-yl)bicyclo[1.1.1]pentane-1-carboxamide] |  | 77 nM |
| Cc1nc2ccc(-c3cncc(N(CC45CCC(c6nc(C(C)(C)C)no6)(CC4)CC5)C(=O)C45CC(F)(C4)C5)c3)cc2s1 [Example 474, N-((4-(3-(tert-butyl)-1,2,4-oxadiazol-5-yl)bicyclo[2.2.2]octan-1-yl)methyl)-3-fluoro-N-(5-(2-methylbenzo[d]thiazol-6-yl)pyridin-3-yl)bicyclo[1.1.1]pentane-1-carboxamide] |  | 541 nM |
| CCOc1ccc(-c2ccnc(N(CC34CCC(c5noc(C(C)(C)C)n5)(CC3)CC4)C(=O)C34CC(F)(C3)C4)c2)cc1 [Example 532, N-((4-(5-(tert-butyl)-1,2,4-oxadiazol-3-yl)bicyclo[2.2.2]octan-1-yl)methyl)-N-(4-(4-ethoxyphenyl)pyridin-2-yl)-3-fluorobicyclo[1.1.1]pentane-1-carboxamide] |  | 86 nM |
| CC(C)(F)c1nc(C23CCC(CN(C(=O)C45CC(F)(C4)C5)c4cccc(-c5cn[nH]c(=O)c5)c4)(CC2)CC3)no1 [Example 594, 3-fluoro-N-((4-(5-(2-fluoropropan-2-yl)-1,2,4-oxadiazol-3-yl)bicyclo[2.2.2]octan-1-yl)methyl)-N-(3-(6-oxo-1,6-dihydropyridazin-4-yl)phenyl)bicyclo[1.1.1]pentane-1-carboxamide] | 1840 nM |  |
| O=C1Cc2cc(-c3cccc(N(CC45CCC(c6nc(C7CC7)no6)(CC4)CC5)C(=O)C45CC(F)(C4)C5)c3)ccc2N1 [Example 332, N-((4-(3-cyclopropyl-1,2,4-oxadiazol-5-yl)bicyclo[2.2.2]octan-1-yl)methyl)-3-fluoro-N-(3-(2-oxoindolin-5-yl)phenyl)bicyclo[1.1.1]pentane-1-carboxamide] | 158 nM |  |
| CC(C)Oc1ccc(-c2cccc(N(CC34CCC(c5cc(C(C)(F)F)on5)(CC3)CC4)C(=O)OC(C)(C)C(F)(F)F)c2)cc1 [Example 656, 1,1,1-trifluoro-2-methylpropan-2-yl ((4-(5-(1,1-difluoroethyl)isoxazol-3-yl)bicyclo[2.2.2]octan-1-yl)methyl)(4′-isopropoxy-[1,1′-biphenyl]-3-yl)carbamate] | 1060 nM |  |
| O=C(N(CC12CCC(c3nc(C4CC4)no3)(CC1)CC2)c1cccc(-c2ccc3c(c2)OCO3)c1)C12CC(F)(C1)C2 [Example 255, N-(3-(benzo[d][1,3]dioxol-5-yl)phenyl)-N-((4-(3-cyclopropyl-1,2,4-oxadiazol-5-yl)bicyclo[2.2.2]octan-1-yl)methyl)-3-fluorobicyclo[1.1.1]pentane-1-carboxamide] | 69.8 nM |  |
| COc1cnc(-c2cccc(N(CC34CCC(c5noc(C(C)(C)C)n5)(CC3)CC4)C(=O)C34CC(F)(C3)C4)c2)nc1 [Example 450, N-((4-(5-(tert-butyl)-1,2,4-oxadiazol-3-yl)bicyclo[2.2.2]octan-1-yl)methyl)-3-fluoro-N-(3-(5-methoxypyrimidin-2-yl)phenyl)bicyclo[1.1.1]pentane-1-carboxamide] | 68 nM |  |
| CCOc1ccc(-c2cncc(N(CC34CCC(c5nc(C6CC6)no5)(CC3)CC4)C(=O)C34CC(F)(C3)C4)c2)cc1 [Example 424, N-((4-(3-cyclopropyl-1,2,4-oxadiazol-5-yl)bicyclo[2.2.2]octan-1-yl)methyl)-N-(5-(4-ethoxyphenyl)pyridin-3-yl)-3-fluorobicyclo[1.1.1]pentane-1-carboxamide] | 483 nM |  |
| COc1cc(-c2cccc(N(CC34CCC(c5nnc(C)o5)(CC3)CC4)C(=O)C34CC(F)(C3)C4)c2)ccn1 [Example 230, 3-Fluoro-N-(3-(2-methoxypyridin-4-yl)phenyl)-N-((4-(5-methyl-1,3,4-oxadiazol-2-yl)bicyclo[2.2.2]octan-1-yl)methyl)bicyclo[1.1.1]pentane-1-carboxamide] | 988 nM |  |
| CCOc1ncc(-c2cccc(N(CC34CCC(c5nc(C(C)(C)C)no5)(CC3)CC4)C(=O)C34CC(F)(C3)C4)c2)cn1 [Example 357, N-((4-(3-(tert-butyl)-1,2,4-oxadiazol-5-yl)bicyclo[2.2.2]octan-1-yl)methyl)-N-(3-(2-ethoxypyrimidin-5-yl)phenyl)-3-fluorobicyclo[1.1.1]pentane-1-carboxamide] | 83 nM |  |
| CC(C)(C)c1nc(C23CCC(CN(C(=O)C45CC(F)(C4)C5)c4cccc(-c5ccc(NS(C)(=O)=O)cc5)c4)(CC2)CC3)no1 [Example 438, N-((4-(5-(tert-butyl)-1,2,4-oxadiazol-3-yl)bicyclo[2.2.2]octan-1-yl)methyl)-3-fluoro-N-(4′-(methylsulfonamido)-[1,1′-biphenyl]-3-yl)bicyclo[1.1.1]pentane-1-carboxamide] | 46 nM |  |
| CC(C)(F)c1nc(C23CCC(CN(c4cccc(-c5ccc(-c6nonc6N)cc5)c4)C(=O)[C@H]4C[C@](O)(C(F)(F)F)C4)(CC2)CC3)no1 [Example 662, (cis)-N-(4′-(4-amino-1,2,5-oxadiazol-3-yl)-[1,1′-biphenyl]-3-yl)-N-((4-(5-(2-fluoropropan-2-yl)-1,2,4-oxadiazol-3-yl)bicyclo[2.2.2]octan-1-yl)methyl)-3-hydroxy-3-(trifluoromethyl)cyclobutane-1-carboxamide] | 574 nM |  |
